# “Also recorded” adds a separate entry of the source. Positions of bridges follow the written chain, without caps; N, C: chain ends. Non-standard residues stand in square brackets, D forms with d. Residues, ends and D or L forms follow the SMILES beside them. Chains are numbered I, II in the order given. Gly(N-piperonyl) = O=C(O)CNCc1ccc2c(c1)OCO2; N(4-MeOBn)Gly = COc1ccc(CNCC(=O)O)cc1; Nrpe = C[C@@H](NCC(=O)O)c1ccccc1; Nlys = NCCCCNCC(=O)O
# How the values were obtained:
# H460 xenografts = assay: Inhibition of growth of H460 lung cancer xenograft; assay type: in vivo, mice; conditions: for tumor size reduction: H460 in nude mice, daily dose of 0.5 mg/mL
# Description: Whether PPS1D1 would inhibit tumor growth in a murine model was examined. H460 cells were implanted in nude mice. Tumors were allowed grow until it reach […]. These xenografts were then treated with a daily dose of […] in four different groups that consist of PPS1D1 alone, docetaxel alone, PPS1D1 and docetaxel together or with the control peptoid (PC462D1) alone. Docetaxel is a standard chemotherapeutic treatment for non-small cell carcinoma. The activity of PPSD1 and its ability to work as a combination treatment were examined. […] This effect was extremely potent and the tumor growth was completely controlled. […] It has been reported that chemotherapy and radiation therapy increase the PS flipping in tumor microenvironment. Therefore, Docetaxel might have helped improve binding of PPS1D1 on cancer cell surface that is now displaying an increased amount of PS to be targeted. After the standard chemotherapy and radiation therapy, the target PS is highly abundant for the drug to recognize and attack.
# The effect of PPS1D1 on the growth of H460 xenografts implanted in NOD/SCID immunodeficient mice was examined. Immunodeficient animals were chosen to facilitate the growth of human tumor xenografts. […] Therapy with a control peptoid (PC462D1, 0.25 mg/mouse, 3×/week ip), PPS1D1 (0.25 mg/mouse, 3×/week ip), docetaxel (0.5 mg/kg, 2×/week, ip) or the combination of PPS1D1+docetaxel was initiated when tumors were ˜100 mm3 in volume. […] Tumor tissue was harvested after 4 weeks of therapy and assessed for cell proliferation and apoptosis by immunohistochemistry. […] It is clear from studies with bavituximab that standard chemotherapy (e.g., taxanes) increases the exposure of PS resulting in elevated binding of the PS targeting agent. A similar mechanism can underlie the enhanced activity of docetaxel and PPS1D1.
# All animals were housed in a pathogen-free facility with continuous access to food and water. Mice were purchased from the core breeding facility at UT Southwestern. Six to eight-week-old female NOD/SCID mice were injected with 2.5×10^6 H460 cells subcutaneously. Tumor volume was followed by twice weekly measurements with Vernier calipers. Animals were randomized and treatment was initiated with mean tumor volume of each group was 100 mm3. Four different groups used were: (I) control PC462D1, (II) PPS1D1, (III) docetaxel, and (IV) combination of PPS1D1+docetaxel. Mice (n=8/group) were treated with PPS1D1 or PC462D1 in saline by ip injection at a dose of 0.25 mg/mouse, 3 times per week on a M-W-F schedule. Docetaxel from the UT Southwestern Clinical pharmacy was diluted in saline and delivered 2×/week ip at 5 mg/kg. Animals were sacrificed after 4 weeks of therapy. Tumor tissue was snap frozen, sectioned and stained with antibodies specific for phospho-Histone H3 (Millipore, #06-570) and cleaved caspase 3 (Cell Signaling, #9664). Reactivity was developed with appropriate fluorescently conjugated secondary antibodies (Jackson ImmunoResearch) and mounted with Prolong Gold with DAPI (Invitrogen), coverslipped and evaluated by fluorescence microscopy.
# [1] = In vitro cellular activity of PS targeted peptoid derivatives; assay type: cell-based
# Source text: Peptoid compounds include but are not limited to PPS1D1 (FIG. 15), PPS1-DE2 (FIG. 16), PPS1-RD1 (FIG. 17), PPS1-2P3H (FIG. 18), PPS1-4P3H (FIG. 19), PPS1-Tri-1 (FIG. 20), PPS1-Tet-1 (FIG. 21), and PPS2D1 (FIG. 22). […] PPS1D1 has a validated in vivo animal tumor burden activity.
smiles,measurement,setting,value
COc1ccc(CN(CC(=O)N(CCCCN)CC(=O)N[C@@H](CCCCN)C(=O)N[C@H](CCCCN)C(=O)N[C@@H](CCSC)C(=O)NCCCC[C@H](NC(=O)[C@H](CCSC)NC(=O)[C@@H](CCCCN)NC(=O)[C@H](CCCCN)NC(=O)CN(CCCCN)C(=O)CN(Cc2ccc(OC)cc2)C(=O)CN(C(=O)CN(Cc2ccc3c(c2)OCO3)C(=O)CN[C@H](C)c2ccccc2)[C@H](C)c2ccccc2)C(N)=O)C(=O)CN(C(=O)CN(Cc2ccc3c(c2)OCO3)C(=O)CN[C@H](C)c2ccccc2)[C@H](C)c2ccccc2)cc1 [PPS1D1] (I: H-[Nrpe][Gly(N-piperonyl)][Nrpe][N(4-MeOBn)Gly][Nlys]K[dK]MK-NH2 / II: H-[Nrpe][Gly(N-piperonyl)][Nrpe][N(4-MeOBn)Gly][Nlys]K[dK]M; amide I:9-II:C; N-terminus assumed),tumor growth (tumor volume vs days post therapy initiation),"H460 xenografts; H460 in NOD/SCID mice, peptoids 0.25 mg/mouse 3x/week ip, docetaxel 0.5 mg/kg 2x/week ip",slowed tumor growth
same,tumor size reduction,H460 xenografts,strong tumor burden effect; also recorded: equally effective in reducing the size of the tumors
same,tumor size reduction,H460 xenografts; listed as PPSD1,slightly better effect
same,animal weight loss,H460 xenografts; at the doses used,did not induce animal weight loss
same,in vitro cellular activity,[1],validated in vitro cellular activity

# — patent US10849875B2, “Cancer specific lipid targeted peptidomimetics” (University of Houston System, priority 2015, dated 2020)
